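Grown in 96-well plates, cells were treated for 48 hours with each compound at five concentrations. Insufficient inhibition: endpoint recorded as highest concentration tested. TGI: total growth inhibition.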
Legend:
Test in all cases: NCI-60 cell line screen, 48 h
[1] = system: NCI-H23 lung
[2] = system: NCI/ADR-RES ovarian
[3] = system: SF-295 CNS
[4] = system: UACC-257 melanoma
[5] = system: HOP-62 NSCLC
[6] = system: MALME-3M melanoma
[7] = system: IGROV1 ovarian
[8] = system: MDA-N
[9] = system: EKVX NSCLC
[10] = system: MDA-MB-435
[11] = system: 786-0 renal
[12] = system: SK-OV-3 ovarian

Row | Compound | TGI [1] [µM] | TGI [2] [µM] | TGI [3] [µM] | TGI [4] [µM] | TGI [5] [µM] | TGI [6] [µM] | TGI [7] [µM] | TGI [8] [µM] | TGI [9] [µM] | TGI [10] [µM] | TGI [11] [µM] | TGI [12] [µM]
1 | N#CC1C(=O)Nc2sc(C(=O)c3ccc(Br)cc3)c(N)c2C12CCCCC2 (configuration not stated) | > 100 | > 100 | > 100 | > 100 | > 100 | 84.2 | > 100 | 55.4 | > 100 | 58.9 | > 100 | > 100
2 | CC1(C)OCC2OC3([C@H](O)CCO)OC(C)(C)OC3C2O1 (some centres not stated) | > 100 | > 100 | > 100 | > 100 | > 100 |  | > 100 | > 100 | > 100 | > 100 | > 100 | 
3 | CCOC(=O)CCC(NC(=O)c1ccc(CNc2nc3cc(N)cc(N)c3nc2-c2ccccc2)cc1)C(=O)OCC (configuration not stated) | > 100 | > 100 | > 100 | 39.1 | > 100 | 35.3 | > 100 |  | > 100 | > 86.4 | > 100 | > 100
4 | OC(c1cccs1)c1cc2ccccc2s1 (configuration not stated) | > 10 | > 10 | > 10 | > 10 | > 10 |  | > 10 | > 10 | > 10 | > 10 | > 10 | > 10
5 | COc1ccc(/C=C2\CN(C)CC3=C2OC(N)=C(C#N)C3c2ccc(OC)cc2)cc1 (configuration not stated) | > 100 | > 100 | > 100 | > 100 | > 100 | 58.1 | > 95.5 | > 100 | > 100 | > 71.2 | > 100 | > 100
6 | O=[N+]([O-])c1ccc(Cl)cc1C1ON=C(c2ccccc2)N1C12CC3CC(CC(C3)C1)C2 (configuration not stated) | > 100 | > 100 | > 100 | > 100 | > 100 | > 100 | > 100 | > 100 | > 100 | > 100 | > 100 | > 100
7 | C#CC(O)/C=C/CCCCCCC#CC/C=C\CC#CCCCCCC/C=C/C(O)C#C (configuration not stated) | 3.53 | 8.26 | 26.9 | 8.57 | 4.72 |  | 2.17 | 7.52 | 5.23 | 5.4 | 5.23 | 32.1
8 | Cn1c(C(C#N)c2cc(Cl)ncn2)nc2ccccc21 (configuration not stated) | > 100 | > 100 | > 100 | > 100 | > 100 | > 100 | > 100 | > 100 | > 100 | > 100 | > 100 | > 100
9 | N[C@@H]1c2c(Br)sc(Br)c2[C@H](O)[C@@H]1O | > 100 | > 100 | > 100 | > 100 |  | > 100 | > 100 | > 100 | > 100 | > 100 | > 100 | > 100
10 | CCOC(OCC)C(CC)[Se]c1ccccc1[N+](=O)[O-] (configuration not stated) | > 42.7 |  | > 22.9 | > 94.6 | > 74.2 | > 100 | > 100 | > 100 | > 100 |  | > 46.7 | 9.44
11 | OC1C(O)C(O)C(O)C(O)C1O (configuration not stated) | > 1000 | > 1000 |  | > 1000 | > 1000 | > 1000 | > 1000 |  |  | > 1000 | > 1000 | > 1000
12 | Cc1cccc(-c2cc(=O)c3ccc(C)nc3[nH]2)c1 | > 37.9 | 0.383 | 14.9 |  | > 100 | > 100 | > 100 |  | > 100 |  | > 100 | > 100
13 | O=c1c2cc(Br)ccc2oc2nc3n(c(=O)c12)CCCS3 | > 100 | > 100 | > 100 | > 100 | > 100 | > 100 | > 100 | > 100 | > 100 | > 100 | > 100 | 
14 | COC(=O)C(NC(=O)CNC(=O)CSc1nnc(COc2ccc(Cl)cc2)n1-c1ccccc1)C(C)C (configuration not stated) | 42.8 | > 100 | 34.5 | 34.6 | 92 | 35.5 | 50.1 | 51.2 | > 100 | 47.4 | 32.5 | 
15 | FC(F)(F)c1ccc2c(c1)nc(Cc1ccccc1)n2C[C@@H]1CCCN2CCCCC12 (some centres not stated) | 30.8 | 30.9 | 29.6 | 28.9 | 28.7 | 31.1 | 28.9 | 26.2 | 28.9 | 30.4 | 28.6 | 31.3
16 | OCCSCCCSCCO | > 100 | > 100 | > 100 | > 100 | > 100 |  | > 100 | > 100 | > 100 |  | > 100 | > 100
17 | COC1=CC(=O)C(O)=C(C[C@@]2(C)[C@@H]3CCC[C@H](COC(=O)CCCCCNC(=O)OC(C)(C)C)[C@@]3(C)CC[C@@H]2C)C1=O |  |  | > 10 | > 10 | > 10 | > 10 | > 10 | > 10 | > 10 | > 10 | > 10 | > 10
18 | N#CCCC(CC#N)N1CCN(CCO)CC1 (configuration not stated) | > 100 | > 100 | > 100 | > 100 | > 100 | > 100 | > 100 |  | > 100 | > 100 | > 100 | > 100
19 | CCCn1cnc2c(NN=O)ncnc21 | > 100 | > 100 |  |  | > 100 | > 100 | > 100 | > 100 | > 100 | > 100 | > 100 | 
20 | Oc1ccc2c(c1)OCC(O)(c1ccccc1O)C2 (configuration not stated) | > 100 | > 100 | > 100 | > 100 | > 100 |  | > 100 | > 100 | > 100 | > 100 | > 100 | > 100

Row | Compound | TGI [1] [µM] | TGI [2] [µM] | TGI [3] [µM] | TGI [4] [µM] | TGI [5] [µM] | TGI [6] [µM] | TGI [7] [µM] | TGI [8] [µM] | TGI [9] [µM] | TGI [10] [µM] | TGI [11] [µM] | TGI [12] [µM]
21 | COc1cccc(NCC(=O)Nn2c(-c3ccccc3)nc3ccccc3c2=O)c1 | > 100 | > 100 | > 100 | > 100 | > 100 | > 100 | > 100 |  | > 100 | > 100 | > 100 | > 100
22 | COc1nn(Cc2ccccc2F)c2ccc([N+](=O)[O-])cc12 | > 100 | > 100 | > 100 | > 100 | > 100 | > 100 | > 100 | > 100 | > 100 | > 23.6 | > 100 | 
23 | COC1(OC)N=C(N)C2(C#N)C(C)CC(=O)N(N(C)C)C12C#N (configuration not stated) | > 100 | > 100 | > 100 | > 100 | > 100 | > 100 | > 100 |  | > 100 | > 100 | > 100 | > 100
24 | CC(C)CCCC(C)[C@H]1CC[C@H]2[C@@H]3CC[C@H]4C[C@@H](CCC=C(c5cc(Cl)c(O)c(C(=O)OC(C)(C)C)c5)c5cc(Cl)c(O)c(C(=O)OC(C)(C)C)c5)CC[C@]4(C)[C@H]3CC[C@]12C (some centres not stated) | > 50 | > 50 | > 50 |  | > 50 |  | > 50 | > 50 | > 50 | > 50 | > 50 | > 50
25 | O=C1CN(c2ccc(Cl)cc2)C(=O)CN1CCN1CC(=O)N(c2ccc(Cl)cc2)CC1=O | > 100 |  | > 100 | > 100 | > 100 | > 100 | > 100 | > 100 | > 100 | > 100 | > 100 | > 100
26 | CCCCCCCCCCCCCCCCCCNc1ccn(C2OC(COP(=O)(O)O)C(O)C2O)c(=O)n1 (configuration not stated) | > 100 | > 100 | > 100 | > 100 | > 100 |  | > 100 |  | > 100 | > 100 | > 100 | > 100
27 | c1ccc2c(c1)CCc1c-2n(CCN2CCCCC2)c2ccccc12 | 32.1 | 33.1 | 30.8 | 32.5 | 30.1 | 40.3 | 27.3 |  | 37.9 | 74.4 | 33 | 49.7
28 | NC(=O)c1n[nH]n(-c2ccccc2)c1=O | > 100 | > 100 | > 100 | > 100 | > 100 | > 100 | > 100 |  | > 100 | > 100 | > 100 | > 100
29 | Oc1ccc(-c2nc3cc(C(F)(F)F)ccc3n2CC2CCCN3CCCCC23)cc1 (configuration not stated) | 30.4 | 32.9 | 28.4 | 30.3 | 26 |  | 26 | 29.7 | 31 | 26.3 | 30.7 | 27.6
30 | CO/N=C1\CCC2(O)C3Cc4ccc(O)c5c4C2(CCN3CC2CC2)[C@H]1O5 (some centres not stated) | > 100 | > 100 | > 100 |  | > 100 | > 100 | > 100 | > 100 | > 100 | > 100 | > 100 | > 100
31 | OCCCSc1ccccc1SCCCO | > 100 | > 100 | > 100 | > 100 | > 100 |  | > 100 | > 100 | > 100 | > 100 | > 100 | > 100
32 | CC1=C(C2=C(C)C(=O)C(=O)c3cc(C)ccc32)c2ccc(C)cc2C(=O)C1=O | 0.442 |  | 0.373 | 0.382 | 2.59 | 0.435 |  | 0.347 | 0.686 |  | 1.45 | 3.07
33 | CC1=C(C(=O)OCCO[N+](=O)[O-])C(c2ccccc2C(F)(F)F)C(C(=O)OC(C)C)=C(C)N1 (configuration not stated) | 85.4 | 57.8 | 26.9 | 25.4 | 45.8 | 58.1 | 42.8 |  | 97.9 | 53.5 | 36.6 | > 100
34 | C=C(C)CCC1CCCCC(CN(C)C)C1=O (configuration not stated) | > 100 | > 100 | > 100 | > 100 | > 100 |  | > 100 | > 100 | > 100 | > 100 | > 100 | > 100
35 | CCCCCCOc1ccc(NC2=C(Cl)C(=O)c3cccnc3C2=O)cc1 | 3.7 |  | > 10 | 5.21 | 5.83 | 4.85 | 3.62 | 3.18 | 3.22 | 3.62 | 2.8 | > 10
36 | Cc1ccc(C(=O)CC(Cl)=C(Cl)Cl)cc1 | > 100 | > 100 | > 100 | > 100 | > 100 | > 100 | > 100 |  |  | > 100 | > 100 | > 100
37 | COc1ccc(CNc2nc(NCc3ccc(OC)cc3)nc(Nc3ccccc3)n2)cc1 | 78.5 | > 100 | 8.83 | > 100 | > 100 | > 100 | > 100 |  | > 100 | 5.7 | > 100 | > 100
38 | C/C(Cl)=N\OC(=O)Nc1ccccc1C(F)(F)F | > 100 | 47.5 | > 100 | > 100 |  | 48.1 | > 100 | 31.7 | 57.6 |  | 38.6 | > 100
39 | COc1cc(/C=C2\N=C(c3ccccc3)N(C3Nc4cc5c(cc4S3)NC(N3C(=O)/C(=C/c4cc(OC)c(OC)c(OC)c4)N=C3c3ccccc3)S5)C2=O)cc(OC)c1OC (configuration not stated) | > 100 | > 100 | > 100 | > 100 | > 100 |  | > 100 | > 100 | > 100 | > 100 | > 100 | 

Reference: PubChem BioAssay (NCI)
